{"source": "patent US8835455B2", "about": "“Crystalline forms of trans-7-oxo-6-(sulphooxy)-1,6-diazabicyclo[3,2,1]octane-2-carboxamide sodium salt” (Forest Laboratories Holdings Limited, priority 2009, dated 2014)", "experiment": "Behaviour of crystalline forms in humid atmosphere", "format": "physicochemical", "from_the_text": "The invention also relates to processes for making a dihydrate form of the sodium salt of (1R,2S,5R)-7-oxo-6-sulphooxy-1,6-diazabicyclo[3.2.1]octane-2-carboxamide called Form III. In exemplary embodiments, crystals of Form II are suspended in water, and the suspension is then left to evaporate slowly in a humid atmosphere. Crystals can also been obtained by trituration of crystals of Form II in water or in an alkanol-water mixture, or by conversion, in a humid atmosphere, of the anhydrous Form I and Form IV to the monohydrated Form II and then to the dihydrated Form III."}
{"smiles": "NC(=O)[C@@H]1CC[C@@H]2CN1C(=O)N2OS(=O)(=O)[O-].[Na+]", "note": "[Form III, trans-7-oxo-6-(sulphooxy)-1,6-diazabicyclo[3,2,1]octane-2-carboxamide sodium salt]", "values": [{"measurement": "stability at higher humidities", "result": "particularly stable"}]}
